# Reference: EP4796130A1, “ANTI-TISSUE FACTOR ANTIBODY-DRUG CONJUGATE COMPRISING CAMPTOTHECIN DERIVATIVE” (Celltrion, Inc., priority 2023, dated 2025)
# Several values for one entry are separate records, joined by “and”; a condition that tells them apart may be missing. Equal entries are not always repeated.
# Columns and labels:
# [1] = system: HPAFII (human pancreatic cancer xenograft model); test: In vivo antitumor efficacy, HPAFII xenograft model; parameters: species or system CB17 SCID mice; conditions: for Tumor Volume / Tumor Weights on Day 28: mean ± SEM; for T/Cweight / TGI: day 28 vs control group G1; for T/C: tumor volume on day 28 vs control group G1
# [2] = one mouse in G5 (3 mg/kg i.v. QW x 3 weeks); day 18 after start of treatment; autopsied, no abnormalities found
# Text: Animal body weights were regularly monitored as an indirect measure of toxicity. […]
# [3] = system: KYSE520 (human esophageal cancer xenograft model); test: In vivo antitumor efficacy, KYSE520 xenograft model; parameters: species or system BALB/c nude mice; conditions: for Tumor Volume / Tumor Weights on Day 35: mean ± SEM; for T/Cweight / TGI: day 35 vs control group G1; for T/C: tumor volume on day 35 vs control group G1
# [4] = system: MCF-7 (a breast cancer cell line); format: cell-based; conditions: 6 days incubation
substance,measurement,setting,value
Tivdak: ADC in which MMAE is conjugated to Tisotumab; purchased from Jupiter Research Service LLC; DAR 4,Tumor Volume,"[1]; 0.3 mg/kg i.v. QW × 3, day 0",235 ± 17 mm^3
same,Tumor Volume,"[1]; 0.3 mg/kg i.v. QW × 3, day 4",313 ± 34 mm^3
same,Tumor Volume,"[1]; 0.3 mg/kg i.v. QW × 3, day 7",361 ± 49 mm^3
same,Tumor Volume,"[1]; 0.3 mg/kg i.v. QW × 3, day 11",476 ± 64 mm^3
same,Tumor Volume,"[1]; 0.3 mg/kg i.v. QW × 3, day 14",576 ± 69 mm^3
same,Tumor Volume,"[1]; 0.3 mg/kg i.v. QW × 3, day 18",737 ± 91 mm^3
same,Tumor Volume,"[1]; 0.3 mg/kg i.v. QW × 3, day 21",934 ± 113 mm^3
same,Tumor Volume,"[1]; 0.3 mg/kg i.v. QW × 3, day 25","1,219 ± 141 mm^3"
same,Tumor Volume,"[1]; 0.3 mg/kg i.v. QW × 3, day 28","1,607 ± 144 mm^3"
same,T/Cweight,[1]; 0.3 mg/kg i.v. QW × 3,68.36%
same,TGI,[1]; 0.3 mg/kg i.v. QW × 3,35.24%
same,Tumor Weights on Day 28,[1]; 0.3 mg/kg i.v. QW × 3,1.461 ± 0.146 g
same,T/C,[1]; 0.3 mg/kg i.v. QW × 3,68.29%
same,Tumor Volume,"[1]; 1 mg/kg i.v. QW × 1, day 0",235 ± 17 mm^3
same,Tumor Volume,"[1]; 1 mg/kg i.v. QW × 1, day 4",217 ± 16 mm^3
same,Tumor Volume,"[1]; 1 mg/kg i.v. QW × 1, day 7",141 ± 16 mm^3
same,Tumor Volume,"[1]; 1 mg/kg i.v. QW × 1, day 11",87 ± 9 mm^3
same,Tumor Volume,"[1]; 1 mg/kg i.v. QW × 1, day 14",103 ± 14 mm^3
same,Tumor Volume,"[1]; 1 mg/kg i.v. QW × 1, day 18",161 ± 31 mm^3
same,Tumor Volume,"[1]; 1 mg/kg i.v. QW × 1, day 21",213 ± 34 mm^3
same,Tumor Volume,"[1]; 1 mg/kg i.v. QW × 1, day 25",344 ± 49 mm^3
same,Tumor Volume,"[1]; 1 mg/kg i.v. QW × 1, day 28",486 mm^3 and 486 ± 73 mm^3
same,T/Cweight,[1]; 1 mg/kg i.v. QW × 1,21.23%
same,TGI,[1]; 1 mg/kg i.v. QW × 1,88.15%
same,Tumor Weights on Day 28,[1]; 1 mg/kg i.v. QW × 1,0.454 ± 0.088 g
same,T/C,[1]; 1 mg/kg i.v. QW × 1,20.67%
same,Tumor Volume,"[1]; 1 mg/kg i.v. QW × 3, day 0",235 ± 17 mm^3
same,Tumor Volume,"[1]; 1 mg/kg i.v. QW × 3, day 4",190 ± 12 mm^3
same,Tumor Volume,"[1]; 1 mg/kg i.v. QW × 3, day 7",124 ± 11 mm^3
same,Tumor Volume,"[1]; 1 mg/kg i.v. QW × 3, day 11",85 ± 9 mm^3
same,Tumor Volume,"[1]; 1 mg/kg i.v. QW × 3, day 14",70 ± 8 mm^3
same,Tumor Volume,"[1]; 1 mg/kg i.v. QW × 3, day 18",54 ± 6 mm^3
same,Tumor Volume,"[1]; 1 mg/kg i.v. QW × 3, day 21",40 ± 4 mm^3
same,Tumor Volume,"[1]; 1 mg/kg i.v. QW × 3, day 25",33 ± 4 mm^3
same,Tumor Volume,"[1]; 1 mg/kg i.v. QW × 3, day 28",26 mm^3 and 26 ± 3 mm^3
same,T/Cweight,[1]; 1 mg/kg i.v. QW × 3,1.03%
same,TGI,[1]; 1 mg/kg i.v. QW × 3,109.91%
same,Tumor Weights on Day 28,[1]; 1 mg/kg i.v. QW × 3,0.022 ± 0.003 g
same,T/C,[1]; 1 mg/kg i.v. QW × 3,1.09%
same,Tumor Volume,"[1]; 3 mg/kg i.v. QW × 1, day 0",235 ± 17 mm^3
same,Tumor Volume,"[1]; 3 mg/kg i.v. QW × 1, day 4",216 ± 19 mm^3
same,Tumor Volume,"[1]; 3 mg/kg i.v. QW × 1, day 7",128 ± 10 mm^3
same,Tumor Volume,"[1]; 3 mg/kg i.v. QW × 1, day 11",69 ± 8 mm^3
same,Tumor Volume,"[1]; 3 mg/kg i.v. QW × 1, day 14",56 ± 4 mm^3
same,Tumor Volume,"[1]; 3 mg/kg i.v. QW × 1, day 18",39 ± 3 mm^3
same,Tumor Volume,"[1]; 3 mg/kg i.v. QW × 1, day 21",30 ± 2 mm^3
same,Tumor Volume,"[1]; 3 mg/kg i.v. QW × 1, day 25",26 ± 2 mm^3
same,Tumor Volume,"[1]; 3 mg/kg i.v. QW × 1, day 28",19 mm^3 and 19 ± 1 mm^3
same,T/Cweight,[1]; 3 mg/kg i.v. QW × 1,0.54%
same,TGI,[1]; 3 mg/kg i.v. QW × 1,110.22%
same,Tumor Weights on Day 28,[1]; 3 mg/kg i.v. QW × 1,0.012 ± 0.001 g
same,T/C,[1]; 3 mg/kg i.v. QW × 1,0.80%
same,body weight loss,[2],more than 20%
same,Tumor Volume,"[3]; 1 mg/kg i.v. QW x 3 weeks, day 0",175 ± 8 mm^3
same,Tumor Volume,"[3]; 1 mg/kg i.v. QW x 3 weeks, day 4",279 ± 20 mm^3
same,Tumor Volume,"[3]; 1 mg/kg i.v. QW x 3 weeks, day 7",360 ± 29 mm^3
same,Tumor Volume,"[3]; 1 mg/kg i.v. QW x 3 weeks, day 11",489 ± 37 mm^3
same,Tumor Volume,"[3]; 1 mg/kg i.v. QW x 3 weeks, day 14",672 ± 51 mm^3
same,Tumor Volume,"[3]; 1 mg/kg i.v. QW x 3 weeks, day 18",771 ± 64 mm^3
same,Tumor Volume,"[3]; 1 mg/kg i.v. QW x 3 weeks, day 21",865 ± 75 mm^3
same,Tumor Volume,"[3]; 1 mg/kg i.v. QW x 3 weeks, day 25","1,168 ± 101 mm^3"
same,Tumor Volume,"[3]; 1 mg/kg i.v. QW x 3 weeks, day 28","1,497 ± 121 mm^3"
same,Tumor Volume,"[3]; 1 mg/kg i.v. QW x 3 weeks, day 32","1,634 ± 126 mm^3"
same,Tumor Volume,"[3]; 1 mg/kg i.v. QW x 3 weeks, day 35","1,893 ± 166 mm^3"
same,T/Cweight,[3]; 1 mg/kg i.v. QW x 3 weeks,86.67%
same,TGI,[3]; 1 mg/kg i.v. QW x 3 weeks,13.03%
same,Tumor Weights on Day 35,[3]; 1 mg/kg i.v. QW x 3 weeks,1.869 ± 0.138 g
same,T/C,[3]; 1 mg/kg i.v. QW x 3 weeks,88.03%
same,Tumor Volume,"[3]; 3 mg/kg i.v. QW x 3 weeks, day 0",175 ± 8 mm^3
same,Tumor Volume,"[3]; 3 mg/kg i.v. QW x 3 weeks, day 4",241 ± 23 mm^3
same,Tumor Volume,"[3]; 3 mg/kg i.v. QW x 3 weeks, day 7",279 ± 24 mm^3
same,Tumor Volume,"[3]; 3 mg/kg i.v. QW x 3 weeks, day 11",281 ± 31 mm^3
same,Tumor Volume,"[3]; 3 mg/kg i.v. QW x 3 weeks, day 14",270 ± 31 mm^3
same,Tumor Volume,"[3]; 3 mg/kg i.v. QW x 3 weeks, day 18",174 ± 17 mm^3
same,Tumor Volume,"[3]; 3 mg/kg i.v. QW x 3 weeks, day 21",154 ± 17 (n = 9)^c mm^3
same,Tumor Volume,"[3]; 3 mg/kg i.v. QW x 3 weeks, day 25",142 ± 15(n = 9) mm^3
same,Tumor Volume,"[3]; 3 mg/kg i.v. QW x 3 weeks, day 28",129 ± 16 (n = 9) mm^3
same,Tumor Volume,"[3]; 3 mg/kg i.v. QW x 3 weeks, day 32",115 ± 16(n = 9) mm^3
same,Tumor Volume,"[3]; 3 mg/kg i.v. QW x 3 weeks, day 35",99 mm^3 and 99 ± 14 (n = 9) mm^3 and 99 ± 14 mm^3
same,T/Cweight,[3]; 3 mg/kg i.v. QW x 3 weeks,4.12%
same,TGI,[3]; 3 mg/kg i.v. QW x 3 weeks,103.89%
same,Tumor Weights on Day 35,[3]; 3 mg/kg i.v. QW x 3 weeks,0.089 ± 0.013 g
same,T/C,[3]; 3 mg/kg i.v. QW x 3 weeks,4.58%
same,Tumor Volume,"[3]; 10 mg/kg i.v. QW x 3 weeks, day 0",175 ± 8 mm^3
same,Tumor Volume,"[3]; 10 mg/kg i.v. QW x 3 weeks, day 4",243 ± 22 mm^3
same,Tumor Volume,"[3]; 10 mg/kg i.v. QW x 3 weeks, day 7",259 ± 24 mm^3
same,Tumor Volume,"[3]; 10 mg/kg i.v. QW x 3 weeks, day 11",234 ± 23 mm^3
same,Tumor Volume,"[3]; 10 mg/kg i.v. QW x 3 weeks, day 14",196 ± 16 mm^3
same,Tumor Volume,"[3]; 10 mg/kg i.v. QW x 3 weeks, day 18",122 ± 11 mm^3
same,Tumor Volume,"[3]; 10 mg/kg i.v. QW x 3 weeks, day 21",101 ± 7 mm^3
same,Tumor Volume,"[3]; 10 mg/kg i.v. QW x 3 weeks, day 25",88 ± 7 mm^3
same,Tumor Volume,"[3]; 10 mg/kg i.v. QW x 3 weeks, day 28",69 ± 5 mm^3
same,Tumor Volume,"[3]; 10 mg/kg i.v. QW x 3 weeks, day 32",58 ± 5 mm^3
same,Tumor Volume,"[3]; 10 mg/kg i.v. QW x 3 weeks, day 35",45 mm^3 and 45 ± 6 mm^3
same,T/Cweight,[3]; 10 mg/kg i.v. QW x 3 weeks,1.93%
same,TGI,[3]; 10 mg/kg i.v. QW x 3 weeks,106.62%
same,Tumor Weights on Day 35,[3]; 10 mg/kg i.v. QW x 3 weeks,0.042 ± 0.004 g
same,T/C,[3]; 10 mg/kg i.v. QW x 3 weeks,2.08%
same,IC50,[4],442 nM
